What was measured:
[1] = system: IL-8; assay: UVB-mediated induction of IL-8 in pterygium epithelial cells, sandwich immunoassay of supernatants; format: cell-based, human; settings: for IL-8 production post-radiation (effect in words) / IL-8 levels: 20 mJ/cm^2 UVB; for IL-8 production post-radiation (effect in words): 10 μM PD98059, 1 μM SB202190, 1 μM SB203580, 1 μM hydrocortisone; for IL-8 levels: supernatant after 48 hrs, UVB alone 166.6±22.5 pg/ml
Method: (§1) Pterygium-derived epithelial cells (PEC) were seeded at 1×10^6 cells in 100 mm tissue culture dishes (Corning, N.Y.) or at a density of 1.5×10^5 cells per well in 6-well plates (Nunc, Denmark) and grown in the presence of 10% FBS/EMEM. Once cells reached semi-confluence, the medium was aspirated, cells washed three times with sterile PBS, and left in serum-free medium for 16 hrs as previously described (Di Girolamo N., et al. Prog Retin Eye Res. 2004; 23:195-228), (Di Girolamo N., et al., Invest Opthalmol Vis Sci. 2000; 41:671-679), (Di Girolamo N., et al., Invest Opthalmol Vis Sci. 2002; 43:3430-3437), (Nolan T, et al., Am J Pathol. 2003; 162:567-574), (Di Girolamo., et al., Invest Ophthalmol Vis Sci. 2003; 44:4705-4714). In some experiments, cells were pre-incubated with selective inhibitors of ERK1/2, JNK, and p38 MAPKs (Calbiochem, Calif.). These included 10 μM PD98059, 1 μM SB202190, and 1 μM SB203580, respectively. In addition, 1 μM hydrocortisone (Sigma, St Louis, […].) was added to some cells as a broad-spectrum negative regulator of cytokine production.
(§2) To determine whether surface receptors were involved in transmitting the UVB signal, some cells were pre-incubated for 1 hr with 0.1 μM PD153035 (Calbiochem), an inhibitor of the tyrosine kinase activity of the EGFR or with 0.1 μM AG1295 (Calbiochem) an inhibitor of the tyrosine kinase activity of the PDGFR. While in other experiments, cells were pre-treated with RA (0-0.1 μM; Sigma) or IFN-α (0-15,000 U; PBL Biomedical Laboratories, Piscataway, N.J.). This medium was replaced with PBS and monolayers irradiated with 20 mJ/cm^2 of UVB using FL20SE bulbs (Philips, Sydney, Australia) as previously reported (Di Girolamo N., et al. Prog Retin Eye Res. 2004; 23:195-228), (Di Girolamo N., et al., Invest Opthalmol Vis Sci. 2002; 43:3430-3437), (Nolan T, et al., Am J Pathol. 2003; 162:567-574), (Di Girolamo., et al., Invest Ophthalmol Vis Sci. 2003; 44:4705-4714). UVB light intensity was monitored and calibrated prior to each experiment with the aid of a radiometer IL1400A (International Light, Newburyport, Mass.). After each exposure, PEC were rinsed once with PBS and placed in fresh serum-free medium with the respective compounds, then incubated for a further 48 hrs. Supernatants were collected, cleared of any cell debris by centrifugation, and stored frozen in small aliquots at −70° C. The compounds used in these experiments were non-toxic at all doses tested.
(§3) Human IL-6, IL-8, and VEGF (Quantikine™; R&D Systems, Minneapoli, Minn.) were quantified using sandwich immunoassays. Cytokines in supernatants from control (mock irradiated), or UVB-exposed PEC were captured on antibody-coated 96-well plates, and detection performed precisely as directed by the manufacturer. The optical density of the reaction product was read at the appropriate wavelength using a microplate reader (Spectramax™ Plus, Molecular Devices, Sunnyvale, Calif.).
(§4) Cytokine levels in the culture supernatants were expressed as mean±standard deviation. Difference in cytokine level between control and UV treated cells was assessed by one-way analysis of variance, followed by the Newman-Keuls test for multiple comparisons of treatment groups with the control group. A commercial software package (Prism; GraphPad Software, San Diego, Calif.) was used for analysis.

[2] = system: IL-6; assay: UVB-mediated induction of IL-6 in pterygium epithelial cells, sandwich immunoassay of supernatants; format: cell-based, human; settings: for IL-6 production post-radiation (effect in words): 10 μM PD98059, 1 μM SB202190, 1 μM SB203580, 1 μM hydrocortisone
Method: as §1, §2, §3, §4

[3] = system: VEGF; assay: UVB-mediated induction of VEGF in pterygium epithelial cells, sandwich immunoassay of supernatants; format: cell-based, human; settings: for VEGF production post-radiation (effect in words) / VEGF production: 20 mJ/cm^2 UVB; for VEGF production post-radiation (effect in words): 10 μM PD98059, 1 μM SB202190, 1 μM SB203580, 1 μM hydrocortisone; for VEGF production: PEC pre-incubated 1 hr with 0.1 μM inhibitor, supernatant after 48 hrs, UVB alone 166.5±11.0 pg/ml
Method: as §1, §2, §3, §4

[4] = system: pterygium; settings: retrospective study of 164 patients, pterygium surgery with associated treatment; cited from earlier work
[5] = topical ocular use; cited from earlier work
[6] = PEC, single dose of UVB, several concentrations: RA 0-0.1 μM, IFN-α 0-15,000 U

| Molecule | IL-8 production post-radiation (effect in words) ([1]; PEC) | IL-6 production post-radiation (effect in words) ([2]; PEC, 20 mJ/cm^2 UVB) | VEGF production post-radiation (effect in words) ([3]; PEC) | other results |
| --- | --- | --- | --- | --- |
| COc1cccc(-c2cc(=O)c3ccccc3o2)c1N [PD98059] | significantly abrogated | significantly abrogated | only partially, but significantly reduced | – |
| IFN-α | – | – | – | IL-8 protein production (effect in words) [1, 6]: dose-dependently inhibited; IL-6 protein production (effect in words) [2, 6]: dose-dependently inhibited; UVB-mediated induction of VEGF (effect in words) [3, 6]: no significant inhibitory effect |
| C[S+]([O-])c1ccc(-c2nc(-c3ccncc3)c(-c3ccc(F)cc3)[nH]2)cc1 (stereo not shown) [SB203580] | significantly abrogated | significantly abrogated | only partially, but significantly reduced | – |
| Oc1ccc(-c2nc(-c3ccncc3)c(-c3ccc(F)cc3)[nH]2)cc1 [SB202190] | significantly abrogated | significantly abrogated | only partially, but significantly reduced | – |
| COc1cc2ncnc(Nc3cccc(Br)c3)c2cc1OC [PD153035] | – | – | – | IL-8 levels ([1]; PEC pre-incubated 1 hr with 0.1 μM inhibitor): 74.4 ± 23.6 pg/mL; VEGF production [3]: 109.1 ± 1.5 pg/mL |
| C[C@]12CCC(=O)C=C1CC[C@@H]1[C@@H]2[C@@H](O)C[C@@]2(C)[C@H]1CC[C@]2(O)C(=O)CO [Hydrocortisone, hydrocortisone] | near control levels | near control levels | near control levels | – |
| Cc1cc2ncc(-c3ccccc3)nc2cc1C [AG1295] | – | – | – | IL-8 levels ([1]; PEC pre-incubated 1 hr with 0.1 μM PD153035 (EGFR inhibitor) or 0.1 μM AG1295 (PDGFR inhibitor)): 174 ± 60.3 pg/mL; IL-6 levels ([2]; PEC pre-incubated 1 hr with 0.1 μM inhibitor, 20 mJ/cm^2 UVB, supernatant after 48 hrs, UVB alone 356.2±32.1): 217 ± 42 pg/mL; VEGF production [3]: 132.7 ± 8.0 pg/mL |
| CO[C@@]12[C@H](COC(N)=O)C3=C(C(=O)C(C)=C(N)C3=O)N1C[C@@H]1N[C@@H]12 [mitomyacin C] | – | – | – | pterygium regrowth [4]: 8.74%; complications [5]: corneoscleral melting, cataract and secondary glaucoma |

Source: patent US9050310B2, “Treatment of ocular lesions” (priority 2004, dated 2015)
